Several values for one entry are separate records, joined by “and”; a condition that tells them apart may be missing. Equal entries are not always repeated.
Test system: 556581-035-R-J1-PDC spheroids with HUVEC/MSC, viability
Assay: Anticancer human tumor 556581-035-R-J1-PDC patient-derived ovarian carcinoma cell line growth inhibition [IpAb]
Conditions: for viability, T/C: stronger effect = lower value
Outline: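 Combinations with ipatasertib or abemaciclib were tested on tumour spheroids holding HUVEC (25%) and MSC (15%) alongside 60% malignant cells. Top concentration was at or near clinical Cmax (10 microM if undefined), descending in half-log steps.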

[1] = curve of first compound, second compound 0.01 µM
[2] = curve of first compound, second compound 0.0316 µM
[3] = curve of first compound, second compound 0.1 µM
[4] = curve of first compound, second compound 0.316 µM
[5] = curve of first compound, second compound 1 µM
[6] = second compound 0.01 µM, first compound 0.0316 µM
[7] = second compound 0.01 µM, first compound 0.1 µM
[8] = second compound 0.01 µM, first compound 0.316 µM
[9] = second compound 0.01 µM, first compound 1 µM
[10] = second compound 0.01 µM, first compound 3.16 µM
[11] = second compound 0.01 µM, first compound 10 µM
[12] = second compound 0.0316 µM, first compound 0.0316 µM
[13] = second compound 0.0316 µM, first compound 0.1 µM
[14] = second compound 0.0316 µM, first compound 0.316 µM
[15] = second compound 0.0316 µM, first compound 1 µM
[16] = second compound 0.0316 µM, first compound 3.16 µM
[17] = second compound 0.0316 µM, first compound 10 µM
[18] = second compound 0.1 µM, first compound 0.0316 µM
[19] = second compound 0.1 µM, first compound 0.1 µM
[20] = second compound 0.1 µM, first compound 0.316 µM
[21] = second compound 0.1 µM, first compound 1 µM
[22] = second compound 0.1 µM, first compound 3.16 µM
[23] = second compound 0.1 µM, first compound 10 µM
[24] = second compound 0.316 µM, first compound 0.0316 µM
[25] = second compound 0.316 µM, first compound 0.1 µM
[26] = second compound 0.316 µM, first compound 0.316 µM
[27] = second compound 0.316 µM, first compound 1 µM
[28] = second compound 0.316 µM, first compound 3.16 µM
[29] = second compound 0.316 µM, first compound 10 µM
[30] = second compound 1 µM, first compound 0.0316 µM
[31] = second compound 1 µM, first compound 0.1 µM
[32] = second compound 1 µM, first compound 0.316 µM
[33] = second compound 1 µM, first compound 1 µM
[34] = second compound 1 µM, first compound 3.16 µM
[35] = second compound 1 µM, first compound 10 µM
[36] = curve of first compound, second compound 3.16 µM
[37] = curve of first compound, second compound 10 µM
[38] = second compound 3.16 µM, first compound 0.0316 µM
[39] = second compound 3.16 µM, first compound 0.1 µM
[40] = second compound 3.16 µM, first compound 0.316 µM
[41] = second compound 3.16 µM, first compound 1 µM
[42] = second compound 3.16 µM, first compound 3.16 µM
[43] = second compound 3.16 µM, first compound 10 µM
[44] = second compound 10 µM, first compound 0.0316 µM
[45] = second compound 10 µM, first compound 0.1 µM
[46] = second compound 10 µM, first compound 0.316 µM
[47] = second compound 10 µM, first compound 1 µM
[48] = second compound 10 µM, first compound 3.16 µM
[49] = second compound 10 µM, first compound 10 µM
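Also: spheroids exposed to compounds for 7 days before readout.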

## CC1(C)CCC(CN2CCN(c3ccc(C(=O)NS(=O)(=O)c4ccc(NCC5CCOCC5)c([N+](=O)[O-])c4)c(Oc4cnc5[nH]ccc5c4)c3)CC2)=C(c2ccc(Cl)cc2)C1 + CCN1CCN(Cc2ccc(Nc3ncc(F)c(-c4cc(F)c5nc(C)n(C(C)C)c5c4)n3)nc2)CC1
[1]
  IC50: 8320 nM
[2]
  IC50: 6500 nM
[3]
  IC50: 6720 nM
[4]
  IC50: 5590 nM
[5]
  IC50: 2060 nM
[6]
  viability, T/C: 92.6%
[7]
  viability, T/C: 118%
[8]
  viability, T/C: 112%
[9]
  viability, T/C: 108%
[10]
  viability, T/C: 102%
[11]
  viability, T/C: 40.2%
[12]
  viability, T/C: 106%
[13]
  viability, T/C: 111%
[14]
  viability, T/C: 108%
[15]
  viability, T/C: 98%
[16]
  viability, T/C: 95.5%
[17]
  viability, T/C: 23.7%
[18]
  viability, T/C: 122%
[19]
  viability, T/C: 104%
[20]
  viability, T/C: 107%
[21]
  viability, T/C: 94.4%
[22]
  viability, T/C: 91.6%
[23]
  viability, T/C: 29.9%
[24]
  viability, T/C: 94%
[25]
  viability, T/C: 95.6%
[26]
  viability, T/C: 92.2%
[27]
  viability, T/C: 94.4%
[28]
  viability, T/C: 87.6%
[29]
  viability, T/C: 11.8%
[30]
  viability, T/C: 67%
[31]
  viability, T/C: 58.1%
[32]
  viability, T/C: 68.6%
[33]
  viability, T/C: 56.8%
[34]
  viability, T/C: 45.1%
[35]
  viability, T/C: 6.15%

## C=CC(=O)N1CCN(c2nc(=O)n(-c3c(C)ccnc3C(C)C)c3nc(-c4c(O)cccc4F)c(F)cc23)C(C)C1 (stereo not drawn) + CC(C)NCC(C(=O)N1CCN(c2ncnc3c2C(C)CC3O)CC1)c1ccc(Cl)cc1
[3]
  IC50: 5380 nM
[4]
  IC50: 6530 nM
[5]
  IC50: 4020 nM
[36]
  IC50: 1790 nM
[37]
  IC50: < 31.6 nM
[18]
  viability, T/C: 99.9%
[19]
  viability, T/C: 108%
[20]
  viability, T/C: 103%
[21]
  viability, T/C: 111%
[22]
  viability, T/C: 68.6%
[23]
  viability, T/C: 28.3%
[24]
  viability, T/C: 79.8%
[25]
  viability, T/C: 79.1%
[26]
  viability, T/C: 74%
[27]
  viability, T/C: 85.1%
[28]
  viability, T/C: 73.4%
[29]
  viability, T/C: 35.4%
[30]
  viability, T/C: 74.3%
[31]
  viability, T/C: 65.6%
[32]
  viability, T/C: 59.8%
[33]
  viability, T/C: 64%
[34]
  viability, T/C: 57%
[35]
  viability, T/C: 28.4%
[38]
  viability, T/C: 54.5%
[39]
  viability, T/C: 54.5%
[40]
  viability, T/C: 52.6%
[41]
  viability, T/C: 47.9%
[42]
  viability, T/C: 48.9%
[43]
  viability, T/C: 21.8%
[44]
  viability, T/C: 44.6%
[45]
  viability, T/C: 48.2%
[46]
  viability, T/C: 45.5%
[47]
  viability, T/C: 48.5%
[48]
  viability, T/C: 34.9%
[49]
  viability, T/C: 13.5%

## C=CCn1c(=O)c2cnc(Nc3ccc(N4CCN(C)CC4)cc3)nc2n1-c1cccc(C(C)(C)O)n1
Compound 0.0316 µM
  viability, T/C: 102% and 109%
Compound 0.1 µM
  viability, T/C: 72.1% and 83.2%
Compound 0.316 µM
  viability, T/C: 28.2% and 29.8%
Compound 1 µM
  viability, T/C: 39.7% and 41.9%
Compound 3.16 µM
  viability, T/C: 50.2% and 42%
Compound 10 µM
  viability, T/C: 36.3% and 35.7%
Curve of compound
  IC50: 214 nM and 230 nM

## C=CCn1c(=O)c2cnc(Nc3ccc(N4CCN(C)CC4)cc3)nc2n1-c1cccc(C(C)(C)O)n1 + CCN1CCN(Cc2ccc(Nc3ncc(F)c(-c4cc(F)c5nc(C)n(C(C)C)c5c4)n3)nc2)CC1
[1]
  IC50: 233 nM
[2]
  IC50: 225 nM
[3]
  IC50: 211 nM
[4]
  IC50: 177 nM
[5]
  IC50: 36.8 nM
[6]
  viability, T/C: 96.9%
[7]
  viability, T/C: 81.9%
[8]
  viability, T/C: 32.1%
[9]
  viability, T/C: 35.9%
[10]
  viability, T/C: 42%
[11]
  viability, T/C: 44.4%
[12]
  viability, T/C: 102%
[13]
  viability, T/C: 78.4%
[14]
  viability, T/C: 27.8%
[15]
  viability, T/C: 37.2%
[16]
  viability, T/C: 51.3%
[17]
  viability, T/C: 36.3%
[18]
  viability, T/C: 83.3%
[19]
  viability, T/C: 66.3%
[20]
  viability, T/C: 31.8%
[21]
  viability, T/C: 40.9%
[22]
  viability, T/C: 50.6%
[23]
  viability, T/C: 41.4%
[24]
  viability, T/C: 91.4%
[25]
  viability, T/C: 60.7%
[26]
  viability, T/C: 29.2%
[27]
  viability, T/C: 38.1%
[28]
  viability, T/C: 48.1%
[29]
  viability, T/C: 40.7%
[30]
  viability, T/C: 54.5%
[31]
  viability, T/C: 41.1%
[32]
  viability, T/C: 32.9%
[33]
  viability, T/C: 31.5%
[34]
  viability, T/C: 42.5%
[35]
  viability, T/C: 13.9%

## CC(C)NCC(C(=O)N1CCN(c2ncnc3c2C(C)CC3O)CC1)c1ccc(Cl)cc1 (stereo not drawn)
Compound 3.16 µM
  viability, T/C: 49% [middle of 13 runs]
Compound 10 µM
  viability, T/C: 45.5% [middle of 12 runs]

## Cn1cnc2c(F)c(Nc3ccc(Br)cc3Cl)c(C(=O)NOCCO)cc21
Compound 0.00949 µM
  viability, T/C: 94.9% and 121%
Compound 0.03 µM
  viability, T/C: 95% and 99.7%
Compound 0.0949 µM
  viability, T/C: 92.9% and 109%
Compound 0.3 µM
  viability, T/C: 74.6% and 91.1%
Compound 0.949 µM
  viability, T/C: 45.2% and 43%
Compound 3 µM
  viability, T/C: 14.4% and 14%
Curve of compound
  IC50: 779 nM and 805 nM

## CC(C)(C)c1cnc(CSc2cnc(NC(=O)C3CCNCC3)s2)o1
Compound 0.00949 µM
  viability, T/C: 104% and 105%
Compound 0.03 µM
  viability, T/C: 116% and 106%
Compound 0.0949 µM
  viability, T/C: 62.5% and 81%
Compound 0.3 µM
  viability, T/C: 2.65% and 4.27%
Compound 0.949 µM
  viability, T/C: 3.19% and 3.08%
Compound 3 µM
  viability, T/C: 4.63% and 2.13%
Curve of compound
  IC50: 121 nM and 151 nM

## CCCS(=O)(=O)Nc1ccc(F)c(C(=O)c2c[nH]c3ncc(-c4ccc(Cl)cc4)cc23)c1F
Compound 0.0316 µM
  viability, T/C: 93.4% and 104%
Compound 0.1 µM
  viability, T/C: 103% and 99.8%
Compound 0.316 µM
  viability, T/C: 105% and 108%
Compound 1 µM
  viability, T/C: 92.9% and 98.8%
Compound 3.16 µM
  viability, T/C: 110% and 104%
Compound 10 µM
  viability, T/C: 75.7% and 78.5%
Curve of compound
  IC50: > 10000 nM

## Cn1ncnc1[C@H]1c2n[nH]c(=O)c3cc(F)cc(c23)N[C@@H]1c1ccc(F)cc1
Compound 0.000316 µM
  viability, T/C: 120% and 97.9%
Compound 0.001 µM
  viability, T/C: 106% and 94.6%
Compound 0.00316 µM
  viability, T/C: 91.1% and 85.3%
Compound 0.01 µM
  viability, T/C: 76.8% and 86.8%
Compound 0.0316 µM
  viability, T/C: 73.8% and 78.4%
Compound 0.1 µM
  viability, T/C: 68% and 62.8%
Curve of compound
  IC50: > 100 nM

## CCN1CCN(Cc2ccc(Nc3ncc(F)c(-c4cc(F)c5nc(C)n(C(C)C)c5c4)n3)nc2)CC1
Compound 1 µM
  viability, T/C: 52.7% [middle of 13 runs]

## CCCS(=O)(=O)Nc1ccc(F)c(C(=O)c2c[nH]c3ncc(-c4ccc(Cl)cc4)cc23)c1F + CC(C)NCC(C(=O)N1CCN(c2ncnc3c2C(C)CC3O)CC1)c1ccc(Cl)cc1
[3]
  IC50: > 10000 nM
[4]
  IC50: > 10000 nM
[5]
  IC50: > 10000 nM
[36]
  IC50: 4620 nM
[37]
  IC50: 31.6 nM
[18]
  viability, T/C: 80.4%
[19]
  viability, T/C: 83%
[20]
  viability, T/C: 97.2%
[21]
  viability, T/C: 88.6%
[22]
  viability, T/C: 90%
[23]
  viability, T/C: 54.3%
[24]
  viability, T/C: 90%
[25]
  viability, T/C: 73.9%
[26]
  viability, T/C: 71.8%
[27]
  viability, T/C: 80.8%
[28]
  viability, T/C: 78.2%
[29]
  viability, T/C: 59.9%
[30]
  viability, T/C: 67.1%
[31]
  viability, T/C: 69%
[32]
  viability, T/C: 61.5%
[33]
  viability, T/C: 71.3%
[34]
  viability, T/C: 69.1%
[35]
  viability, T/C: 40.4%
[38]
  viability, T/C: 49.2%
[39]
  viability, T/C: 61.8%
[40]
  viability, T/C: 55.5%
[41]
  viability, T/C: 55.8%
[42]
  viability, T/C: 54.5%
[43]
  viability, T/C: 40.8%
[44]
  viability, T/C: 45.1%
[45]
  viability, T/C: 46.7%
[46]
  viability, T/C: 47.2%
[47]
  viability, T/C: 53.2%
[48]
  viability, T/C: 50.8%
[49]
  viability, T/C: 16.6%

From PubChem BioAssay AID2060338 (Molecular Pharmacology Branch, DTP, NCI, 2025)
